Measured values published in patent US20050009894A1 (Aventis Pharma S.A., priority 2001, published 2005).
pIC50: −log10 of the molar value.

What follows are compounds tested against T1, human KDR enzyme (Homo sapiens, UniProt P35968) (assay: Phosphorylation of the substrate PLCγ by the enzyme KDR in vitro (flashplate technique)). Details: Table VII, degrees of activity by IC50 range; read-out: Activity.
T1 construct: The cytoplasmic domain of human KDR enzyme is cloned in the form of a GST fusion; GST; made in house; host or cells: SF21 insect cells (baculovirus, pFastBac)
T1 sequence (P35968 786-1356 limits assumed): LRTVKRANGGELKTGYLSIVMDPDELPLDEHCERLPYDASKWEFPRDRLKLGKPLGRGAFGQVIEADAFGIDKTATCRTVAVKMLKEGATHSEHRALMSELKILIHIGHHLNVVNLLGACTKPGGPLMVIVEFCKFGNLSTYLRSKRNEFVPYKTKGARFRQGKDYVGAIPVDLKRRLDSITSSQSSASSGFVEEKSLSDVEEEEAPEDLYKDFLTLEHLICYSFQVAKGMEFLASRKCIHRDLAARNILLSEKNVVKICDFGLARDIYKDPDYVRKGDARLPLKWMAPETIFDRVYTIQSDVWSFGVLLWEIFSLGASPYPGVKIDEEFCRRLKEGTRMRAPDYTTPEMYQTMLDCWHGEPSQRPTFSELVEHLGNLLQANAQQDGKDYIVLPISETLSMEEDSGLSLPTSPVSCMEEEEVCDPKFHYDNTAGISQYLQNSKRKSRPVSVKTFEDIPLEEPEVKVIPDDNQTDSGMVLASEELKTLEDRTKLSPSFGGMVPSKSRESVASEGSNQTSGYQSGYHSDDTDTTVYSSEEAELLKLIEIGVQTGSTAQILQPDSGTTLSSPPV
Assay type: biochemical
Summary of the method: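 GST-fused human KDR cytoplasmic domain (Sf21 baculovirus, ~60% pure; 100 ng/well) phosphorylating 2 μg GST-PLCγ SH2-SH3 fragment in MOPS pH 7.2 with MgCl2/MnCl2, 1 h at 37° C. Started with γ33P-ATP plus cold ATP (2 μM in start solution); flashplate radioactivity. % inhibition vs no-compound control; IC50 from dose-response curves.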
A pIC50 of 5.52 to 6.52 was found for `Cc1ccccc1-c1ccc2nc(-c3[nH]nc4ccccc34)[nH]c2c1` [Example 109, 3-(6-o-Tolyl-1H-benzoimidazol-2-yl)-2H-indazole] in this work. A pIC50 of 5.52 to 6.52 was found for `c1ccc2c(-c3nc4ccc(-c5ccsc5)cc4[nH]3)[nH]nc2c1` [Example 110, 3-(6-Thiophen-3-yl-1H-benzoimidazol-2-yl)-2H-indazole] in this work. A pIC50 of less than 5.52 was found for `FC(F)(F)c1cccc(-c2ccc3nc(-c4[nH]nc5ccccc45)[nH]c3c2)c1` [Example 111, 3-[6-(3-Trifluoromethyl-phenyl)-1H-benzoimidazol-2-yl]-2H-indazole] in this work. A pIC50 of less than 5.52 was found for `FC(F)(F)c1ccc(-c2ccc3nc(-c4[nH]nc5ccccc45)[nH]c3c2)cc1` [Example 112, 3-[6-(4-Trifluoromethyl-phenyl)-1H-benzoimidazol-2-yl]-2H-indazole] in this work. A pIC50 of 5.52 to 6.52 was found for `Clc1cccc(-c2ccc3nc(-c4[nH]nc5ccccc45)[nH]c3c2)c1` [Example 113, 3-[6-(3-Chloro-phenyl)-1H-benzoimidazol-2-yl]-2H-indazole] in this work. A pIC50 of 5.52 to 6.52 was found for `COc1cccc(-c2ccc3nc(-c4[nH]nc5ccccc45)[nH]c3c2)c1` [Example 114, 3-[6-(3-Methoxy-phenyl)-1H-benzoimidazol-2-yl]-2H-indazole] in this work. A pIC50 of 5.52 to 6.52 was found for `Cc1cc(C)cc(-c2ccc3nc(-c4[nH]nc5ccccc45)[nH]c3c2)c1` [Example 115, 3-[6-(3,5-Dimethyl-phenyl)-1H-benzoimidazol-2-yl]-2H-indazole] in this work. A pIC50 of less than 5.52 was found for `Cc1ccc(-c2ccc3nc(-c4[nH]nc5ccccc45)[nH]c3c2)cc1C` [Example 116, 3-[6-(3,4-Dimethyl-phenyl)-1H-benzoimidazol-2-yl]-2H-indazole] in this work. A pIC50 of 5.52 to 6.52 was found for `c1ccc2c(-c3nc4ccc(-c5ccc6c(c5)OCO6)cc4[nH]3)[nH]nc2c1` [Example 117, 3-(6-Benzo[1,3]dioxole-5-yl-1H-benzoimidazol-2-yl)-2H-indazole] in this work. A pIC50 of less than 5.52 was found for `CC(C)(C)c1ccc(-c2ccc3nc(-c4[nH]nc5ccccc45)[nH]c3c2)cc1` [Example 118, 3-[6-(4-tert-Butyl-phenyl)-1H-benzoimidazol-2-yl]-2H-indazole] in this work. A pIC50 of 5.52 to 6.52 was found for `CCCC/C=C/c1ccc2nc(-c3[nH]nc4ccccc34)[nH]c2c1` [Example 119, 3-(6-Hex-1-enyl-1H-benzoimidazol-2-yl)-2H-indazole] in this work. A pIC50 of 5.52 to 6.52 was found for `COc1ccc(-c2ccc3nc(-c4[nH]nc5ccccc45)[nH]c3c2)cc1OC` [Example 120, 3-[6-(3,4-Dimethoxy-phenyl)-1H-benzoimidazol-2-yl]-2H-indazole] in this work. A pIC50 of 5.52 to 6.52 was found for `Oc1cccc(-c2ccc3nc(-c4[nH]nc5ccccc45)[nH]c3c2)c1` [Example 121, 3-[2-(2H-Indazol-3-yl)-3H-benzoimidazol-5-yl]-phenol] in this work. A pIC50 of 5.52 to 6.52 was found for `Oc1ccc(-c2ccc3nc(-c4[nH]nc5ccccc45)[nH]c3c2)cc1` [Example 122, 4-[2-(2H-Indazol-3-yl)-3H-benzoimidazol-5-yl]-phenol] in this work. A pIC50 of less than 5.52 was found for `Clc1ccc(-c2ccc3nc(-c4[nH]nc5ccccc45)[nH]c3c2)cc1Cl` [Example 123, 3-[6-(3,4-Dichloro-phenyl)-1H-benzoimidazol-2-yl]-2H-indazole] in this work. A pIC50 of less than 5.52 was found for `FC(F)(F)Oc1ccc(-c2ccc3nc(-c4[nH]nc5ccccc45)[nH]c3c2)cc1` [Example 124, 3-[6-(4-Trifluoromethoxy-phenyl)-1H-benzoimidazol-2-yl]-2H-indazole] in this work. A pIC50 of less than 5.52 was found for `CC(=O)c1ccc(-c2ccc3nc(-c4[nH]nc5ccccc45)[nH]c3c2)cc1` [Example 125, 1-{4-[2-(2H-Indazol-3-yl)-3H-benzoimidazol-5-yl]-phenyl}-ethanone] in this work. A pIC50 of less than 5.52 was found for `c1ccc2sc(-c3ccc4nc(-c5[nH]nc6ccccc56)[nH]c4c3)cc2c1` [Example 126, 3-(6-Benzo[b]thiophen-2-yl-1H-benzoimidazol-2-yl)-2H-indazole] in this work. A pIC50 of 5.52 to 6.52 was found for `COc1cc(-c2ccc3nc(-c4[nH]nc5ccccc45)[nH]c3c2)cc(OC)c1OC` [Example 127, 3-[6-(3,4,5-Trimethoxy-phenyl)-1H-benzoimidazol-2-yl]-2H-indazole] in this work. A pIC50 of 5.52 to 6.52 was found for `CC(=O)c1ccc(-c2ccc3nc(-c4[nH]nc5ccccc45)[nH]c3c2)s1` [Example 128, 1-{5-[2-(2H-Indazol-3-yl)-3H-benzoimidazol-5-yl]-thiophen-2-yl}-ethanone] in this work. A pIC50 of less than 5.52 was found for `CC(=O)c1cccc(-c2ccc3nc(-c4[nH]nc5ccccc45)[nH]c3c2)c1` [Example 129, 1-{3-[2-(2H-Indazol-3-yl)-3H-benzoimidazol-5-yl]-phenyl}-ethanone] in this work. A pIC50 of less than 5.52 was found for `c1ccc(COc2ccc(-c3ccc4nc(-c5[nH]nc6ccccc56)[nH]c4c3)cc2)cc1` [Example 130, 3-[6-(4-Benzyloxy-phenyl)-1H-benzoimidazol-2-yl]-2H-indazole] in this work. A pIC50 of less than 5.52 was found for `Fc1cc(-c2ccc3nc(-c4[nH]nc5ccccc45)[nH]c3c2)ccc1-c1ccccc1` [Example 131, 3-[6-(2-Fluoro-biphenyl-4-yl)-1H-benzoimidazol-2-yl]-2H-indazole] in this work. A pIC50 of less than 5.52 was found for `c1ccc2c(-c3nc4ccc(-c5csc6ccccc56)cc4[nH]3)[nH]nc2c1` [Example 132, 3-(6-Benzo[b]thiophen-3-yl-1H-benzoimidazol-2-yl)-2H-indazole] in this work. A pIC50 of 5.52 to 6.52 was found for `OCc1cccc(-c2ccc3nc(-c4[nH]nc5ccccc45)[nH]c3c2)c1` [Example 133, {3-[2-(2H-Indazol-3-yl)-3H-benzoimidazol-5-yl]-phenyl}-methanol] in this work. A pIC50 of less than 5.52 was found for `CCSc1ccc(-c2ccc3nc(-c4[nH]nc5ccccc45)[nH]c3c2)cc1` [Example 134, 3-[6-(4-Ethylsulfanyl-phenyl)-1H-benzoimidazol-2-yl]-2H-indazole] in this work. A pIC50 of 5.52 to 6.52 was found for `Fc1ccc(-c2ccc3nc(-c4[nH]nc5ccccc45)[nH]c3c2)c(F)c1` [Example 135, 3-[6-(2,4-Difluoro-phenyl)-1H-benzoimidazol-2-yl]-2H-indazole] in this work. A pIC50 of less than 5.52 was found for `FC(F)(F)Oc1cccc(-c2ccc3nc(-c4[nH]nc5ccccc45)[nH]c3c2)c1` [Example 136, 3-[6-(3-Trifluoromethoxy-phenyl)-1H-benzoimidazol-2-yl]-2H-indazole] in this work. A pIC50 of 5.52 to 6.52 was found for `Cc1cc(F)ccc1-c1ccc2nc(-c3[nH]nc4ccccc34)[nH]c2c1` [Example 137, 3-[6-(4-Fluoro-2-methyl-phenyl)-1H-benzoimidazol-2-yl]-2H-indazole] in this work. A pIC50 of less than 5.52 was found for `Fc1ccc(/C=C/c2ccc3nc(-c4[nH]nc5ccccc45)[nH]c3c2)cc1` [Example 138, 3-{6-[2-(4-Fluoro-phenyl)-vinyl]-1H-benzoimidazol-2-yl}-2H-indazole] in this work. A pIC50 of less than 5.52 was found for `Clc1ccc(/C=C/c2ccc3nc(-c4[nH]nc5ccccc45)[nH]c3c2)cc1` [Example 139, 3-{6-[2-(4-Chloro-phenyl)-vinyl]-1H benzoimidazol-2-yl}-2H-indazole] in this work. A pIC50 of less than 5.52 was found for `O=C(O)CCc1ccc(-c2ccc3nc(-c4[nH]nc5ccccc45)[nH]c3c2)cc1` [Example 140, 3-{4-[2-(2H-Indazol-3-yl)-3H-benzoimidazol-5-yl]-phenyl}-propionic acid] in this work. A pIC50 of 5.52 to 6.52 was found for `OCc1ccc(-c2ccc3nc(-c4[nH]nc5ccccc45)[nH]c3c2)cc1` [Example 141, {4-[2-(2H-Indazol-3-yl)-3H-benzoimidazol-5-yl]-phenyl}-methanol] in this work. A pIC50 of 5.52 to 6.52 was found for `c1coc(-c2ccc3nc(-c4[nH]nc5ccccc45)[nH]c3c2)c1` [Example 142, 3-(6-Furan-2-yl-1H-benzoimidazol-2-yl)-2H-indazole] in this work. A pIC50 of less than 5.52 was found for `c1ccc(COc2cccc(-c3ccc4nc(-c5[nH]nc6ccccc56)[nH]c4c3)c2)cc1` [Example 143, 3-[6-(3-Benzyloxy-phenyl)-1H-benzoimidazol-2-yl]-2H-indazole] in this work. A pIC50 of 5.52 to 6.52 was found for `CC(C)c1ccc(-c2ccc3nc(-c4[nH]nc5ccccc45)[nH]c3c2)cc1` [Example 144, 3-[6-(4-Isopropyl-phenyl)-1H-benzoimidazol-2-yl]-2H-indazole] in this work. A pIC50 of less than 5.52 was found for `CS(=O)(=O)c1ccc(-c2ccc3nc(-c4[nH]nc5ccccc45)[nH]c3c2)cc1` [Example 145, 3-[6-(4-Methanesulfonyl-phenyl)-1H-benzoimidazol-2-yl]-2H-indazole] in this work. A pIC50 of 5.52 to 6.52 was found for `COc1coc(CNC(=O)c2ccc3[nH]c(-c4n[nH]c5ccccc45)nc3c2)cc1=O` [Example 146] in this work. A pIC50 of 5.52 to 6.52 was found for `CC(=O)Nc1ccc(CNC(=O)c2ccc3[nH]c(-c4n[nH]c5ccccc45)nc3c2)cc1` [Example 147, 2-(1H-Indazol-3-yl)-1H-benzoimidazole-5-carboxylic acid 4-acetylamino-benzylamide] in this work. A pIC50 of 5.52 to 6.52 was found for `CNC(=O)c1ccc2[nH]c(-c3n[nH]c4ccccc34)nc2c1` [Example 148, 2-(1H-Indazol-3-yl)-1H-benzoimidazole-5-carboxylic acid methylamide] in this work. A pIC50 of 5.52 to 6.52 was found for `CC(C)NC(=O)c1ccc2[nH]c(-c3n[nH]c4ccccc34)nc2c1` [Example 149, 2-(1H-Indazol-3-yl)-1H-benzoimidazole-5-carboxylic acid isopropylamide] in this work. A pIC50 of 5.52 to 6.52 was found for `O=C(c1ccc2[nH]c(-c3n[nH]c4ccccc34)nc2c1)N1CCOCC1` [Example 150, [2-(1H-Indazol-3-yl)-1H-benzoimidazol-5-yl]-morpholin-4-yl-methanone] in this work. A pIC50 of 5.52 to 6.52 was found for `CN1CCN(C(=O)c2ccc3[nH]c(-c4n[nH]c5ccccc45)nc3c2)CC1` [Example 151, [2-(1H-Indazol-3-yl)-1H-benzoimidazol-5-yl]-(4-methyl-piperazin-1-yl)-methanone] in this work. A pIC50 of 5.52 to 6.52 was found for `CN(Cc1ccccc1)C(=O)c1ccc2[nH]c(-c3n[nH]c4ccccc34)nc2c1` [Example 152, 2-(1H-Indazol-3-yl)-1H-benzoimidazole-5-carboxylic acid benzyl-methyl-amide] in this work. A pIC50 of 5.52 to 6.52 was found for `O=C(NCc1cccc([N+](=O)[O-])c1)c1ccc2[nH]c(-c3n[nH]c4ccccc34)nc2c1` [Example 153, 2-(1H-Indazol-3-yl)-1H-benzoimidazole-5-carboxylic acid 3-nitro-benzylamide] in this work.
